The values below come from ChEMBL document CHEMBL1127728, “Docking analysis of a series of benzylamino acetylcholinesterase inhibitors with a phthalimide, benzoyl, or indanone moiety” (J Med Chem, 1994).

For the assay, the target named is T1, Acetylcholinesterase (Rattus norvegicus, UniProt P37136).
T1 sequence (P37136 whole entry): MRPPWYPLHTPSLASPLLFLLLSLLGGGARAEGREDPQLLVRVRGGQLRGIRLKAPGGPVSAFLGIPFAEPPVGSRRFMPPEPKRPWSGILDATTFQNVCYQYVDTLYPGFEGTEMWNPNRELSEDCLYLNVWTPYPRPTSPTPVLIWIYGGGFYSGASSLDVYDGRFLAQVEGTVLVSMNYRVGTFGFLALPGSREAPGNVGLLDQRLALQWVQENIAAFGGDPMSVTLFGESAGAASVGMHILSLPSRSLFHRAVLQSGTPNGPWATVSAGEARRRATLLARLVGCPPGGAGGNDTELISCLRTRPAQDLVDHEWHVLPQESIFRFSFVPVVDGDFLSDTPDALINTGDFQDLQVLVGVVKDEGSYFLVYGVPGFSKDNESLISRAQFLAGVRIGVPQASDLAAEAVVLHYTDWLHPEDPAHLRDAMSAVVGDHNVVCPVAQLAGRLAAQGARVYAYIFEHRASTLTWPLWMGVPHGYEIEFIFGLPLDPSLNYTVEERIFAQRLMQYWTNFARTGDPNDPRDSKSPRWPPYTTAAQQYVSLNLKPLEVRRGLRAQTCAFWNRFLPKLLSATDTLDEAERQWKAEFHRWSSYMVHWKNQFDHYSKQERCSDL
Kind of assay: Inhibition concentration against rat acetylcholinesterase.
A word on the IC50: it is the concentration at which inhibition is half-maximal. With `CN(CCCCCN1C(=O)c2ccc([N+](=O)[O-])cc2C1=O)Cc1ccccc1`, it took 1360 nM to reach half-maximal inhibition (IC50). In other words, the single-digit micromolar range. As to `O=C1c2ccc([N+](=O)[O-])cc2C(=O)N1CCC1CCN(Cc2ccccc2)CC1`, the IC50 is 13 nM. For `CCN(CCCCCN(C(C)=O)C(=O)/C=C/c1ccc([N+](=O)[O-])cc1)Cc1ccccc1`, half-maximal inhibition (IC50) required 539 nM. The value for `COc1ccccc1CN1CCC(CCC(=O)c2ccc(N3CCCC3)cc2)CC1` was 1900 nM. As to `CCN(CCCCCC(=O)c1ccc(N2CCCC2)cc1)Cc1ccccc1`, the IC50 was 305 nM. This IC50 lies about 6.2-fold lower than the previous one.

Regarding `CCN(CCCCCN1C(=O)c2ccc([N+](=O)[O-])cc2C1=O)Cc1cccc(OC(=O)NC)c1`, the IC50 is 0.38 nM. With `CCN(CCCCCNC(=O)/C=C/c1ccccc1)Cc1ccccc1` the figure was 11800 nM; with `O=C1c2ccccc2C(=O)N1CCC1CCN(Cc2ccccc2)CC1`, 30 nM. Consider `CCN(CCCCCN1C(=O)c2ccc([N+](=O)[O-])cc2C1=O)Cc1cccc(OC)c1OC`, for which the IC50 was 274 nM. Against the preceding molecule, the IC50 is about 9.1-fold higher.

In turn, `CCN(CCCCCCCc1ccc(OC)c(OC)c1)Cc1ccccc1OC` registered an IC50 of 1070 nM. As to `CCN(CCCCCN1C(=O)c2ccc([N+](=O)[O-])cc2C1=O)CC1CCCCC1`, half-maximal inhibition (IC50) required 1090 nM. As to `CCN(CCCCCCOc1ccc(OC)c(OC)c1)Cc1ccccc1OC`, the IC50 is 920 nM. `CCN(CCCCCN(C(C)=O)C(=O)/C=C/c1ccccc1)Cc1ccccc1` returned an IC50 of 2300 nM. The value for `COc1ccc(C(=O)CCC2CCN(Cc3ccccc3)CC2)cc1OC` was 52 nM; that for `CCN(CCCCCN1C(=O)c2ccc([N+](=O)[O-])cc2C1=O)CCCc1ccccc1` was 161 nM.

The molecule `CCN(CCCCCN1C(=O)c2ccc([N+](=O)[O-])cc2C1=O)CCc1ccccc1` yielded a half-maximal inhibitory concentration (IC50) of 770 nM. Against the preceding molecule, the IC50 is about 4.8-fold higher. In the case of `CCN(CCCCCN1C(=O)c2ccccc2C1=O)Cc1ccccc1`, the IC50 was found to be 3370 nM. Against the preceding molecule, the IC50 is about 4.4-fold higher. The value for `CCN(CCCCCN1C(=O)C2CCCCC2C1=O)Cc1ccccc1` (stereo unspecified) was 18500 nM; that for `CCN(CCCCCCN1C(=O)c2ccc([N+](=O)[O-])cc2C1=O)Cc1ccccc1` was 607 nM; that for `CCN(CCCCCC(=O)c1ccc(OC)c(OC)c1)Cc1ccccc1OC` was 24 nM. The molecule `CCN(CCCCCN1C(=O)c2ccc([N+](=O)[O-])cc2C1=O)Cc1ccccc1OC` showed an IC50 of 24 nM. Regarding `CN(CCCCCCN1C(=O)c2ccc([N+](=O)[O-])cc2C1=O)Cc1ccccc1`, it took 474 nM to reach half-maximal inhibition (IC50).

With `CCN(CCCCCCC(=O)c1ccc(OC)c(OC)c1)Cc1ccccc1OC`, 10 nM corresponded to half-maximal inhibition (IC50). `O=C1c2ccc([N+](=O)[O-])cc2C(=O)N1CC1CCN(Cc2ccccc2)CC1` registered an IC50 of 3000 nM. Consider `O=C1c2ccc([N+](=O)[O-])cc2C(=O)N1C1CCN(Cc2ccccc2)CC1`, for which the 50% inhibitory concentration (IC50) amounted to 27000 nM. Take `CCCN(CCCCCN1C(=O)c2ccc([N+](=O)[O-])cc2C1=O)Cc1ccccc1`: half-maximal inhibition (IC50) was put at 2650 nM.
